Assay results as given in patent US11884649B2, “IRE1α inhibitors and uses thereof” (The Regents of the University of California, priority 2020, dated 2024).

Tests used:
IRE1α = molecular target: T1, IRE1α (Rattus norvegicus, UniProt A0A4Y1YQ52); test: ER stress-mediated IRE1α autophosphorylation by Phos-tag SDS-PAGE in INS-1 cells (Brefeldin-A); assay type: cell-based; details: various concentrations, 200 ng/μL Brefeldin-A (BFA) for 2 hours
T1 construct: endogenous in cells; host or cells: INS-1 rat insulinoma beta cells
Experimental: FIG. 21. […] Immunoblots for total IRE1α (bottom) from INS-1 cells treated with various concentrations of PAIR1 or KIRA9 followed by the addition of 200 ng/μL Brefeldin-A (BFA) for 2 hours. Samples were subjected to Phos-tag SDS-PAGE and % autophosphorylated IRE1α (top) was determined from the ratio of phosphorylated IRE1α relative to total IRE1α. Values shown are mean±SEM (n=3).
Treatment Conditions for Phostag Gels
INS-1 or IRE1α-overexpressing isogenic INS-1 cells were plated onto a 24-well Poly-D-Lysine coated tissue culture plate and grown for 48 hrs. Inhibitor or DMSO were added to the media and incubated for 1 hour at 37° C. with 5% CO2 prior to addition of ER stress agents. […] Cells were lysed directly into SDS loading buffer (50 mM Tris, 100 mM DTT, 2% SDS (w/v), 10% glycerol (v/v), and 0.1% bromophenol blue (w/v), pH 6.8) and boiled for five minutes prior to gel loading.
Phostag Acrylamide Gel Procedure
A phostag acrylamide gel recipe used to resolve phosphorylation of IRE1α has been previously established and this recipe was followed verbatim for this study.^91 Resolving gels were allowed to solidify (˜1.5 hr) before adding the stacking gel and comb and allowed to solidify (˜1 hr). Gels were run using Tris-Glycine-SDS running buffer (25 mM Tris, 192 mM glycine, 0.1% SDS, pH 8.3) at 100 V for 3-3.5 hours. […]

[1] = system: RIDD (IRE1α-dependent mRNA decay); test: RIDD (Blos1 mRNA) in ER-stressed INS-1 cells; assay type: cell-based, rat; details: 2 mM DTT, 20 μM compound
Experimental: RNA Isolation, Quantitative Real-Time PCR, and Primers
INS-1 or isogenic IRE1α-overexpressing INS-1 cells were plated onto Poly-D-Lysine coated tissue culture plate and grown for 48 hrs. Inhibitors or DMSO were added to the media and incubated for 1 hour at 37° C. with 5% CO2 prior to addition of ER stress agents or Dox as indicated. RNA was isolated from whole cells using either QIAGEN RNeasy Mini kits or Trizol (Invitrogen) and reverse transcribed as above to obtain total cDNA. Then, XBP-1 primers were used to amplify an XBP-1 amplicon spanning the 26 nt intron from the cDNA samples in a regular 3-step PCR. Thermal cycles were: 5 min at 95° C., 30 cycles of 30 s at 95° C., 30 s at 60° C., and 1 min at 72° C., followed by 72° C. for 15 min, and hold at 4° C. Primers used for XBP-1 mRNA splicing were as follows: sense primer XBP1.3 S (5′ […]-3′ (SEQ ID NO:2)) and antisense primer XBP1.2AS (5′-[…]-3′ (SEQ ID NO:3)). PCR fragments were then digested by PstI, resolved on 3% agarose gels, stained with EtBr and quantified by densitometry using ImageJ (NIH). For standard mRNA detection, generally […] total RNA was reverse transcribed using the QuantiTect Reverse Transcription Kit (QIAGEN). For qPCR, we used SYBR green (QIAGEN) and StepOnePlus Real-Time PCR System (Applied Biosystems). Thermal cycles were: 5 min at 95° C., 40 cycles of 15 sec at 95° C., 30 sec at 60° C. […]

[2] = system: INS-1 cells expressing IRE1α under Dox control; test: RNA-Seq profiling of INS-1 cells conditionally overexpressing IRE1α; assay type: cell-based, rat; details: 20 μM, 5 ng/mL Dox
Experimental: Next, to systematically compare the transcriptomic effects of PAIR1 and KIRA9, we profiled INS-1 cells that conditionally overexpress IRE1α by RNA Seq. As above (FIGS. 4A-4K), IRE1α overexpression was induced with doxycycline (Dox) and cells were treated with either DMSO, or equivalent concentrations of PAIR1 or KIRA9. Total RNA was submitted for sequencing across entire transcripts. The dense coverage of this dataset enabled us to distinguish the endogenous rat IRE1α expression from the induced mouse IRE1α transgene; there was greater than 10-fold induction of transgene expression with doxycycline (FIG. 22). Dense coverage across the Xbp1 locus also enabled quantification of XBP1 splicing based on the reduced density of reads mapping to the noncanonical XBP1 intron. Consistent with measurements of XBP1 splicing by isoform-specific PCR (FIG. 4C), overexpression induced XBP1 splicing was preserved in both DMSO and PAIR1-treated cells, but blocked in KIRA9-treated cells at 4 hours (FIGS. 23A-23B).
RNA Isolation and Preparation
Isogenic IRE1α-overexpressing INS-1 cells were pre-treated with inhibitors for 1 h followed by addition of Dox 5 ng/mL for 4 h and 24 h as indicated. All conditions for RNAseq analysis were performed in three biological replicates. RNA was isolated from whole cells using Qiagen RNeasy with gDNA eliminator kit. RNA purity was determined using a NanaPhotometer spectrometer (IMPLEN, CA, USA). RNA integrity and quantitation were assessed using the RNA Nano 6000 Assay Kit of the Bioanalyzer 2100 system (Agilent Technologies, CA, USA).
Quantification of Gene Expression Level
HTSeq v0.6.1 was used to count the reads numbers mapped to each gene. And then FPKM of each gene was calculated based on the length of the gene and reads count mapped to this gene.
Differential Expression Analysis
Differential expression analysis of two conditions/groups (three biological replicates per condition) was performed using the DESeq R package (1.18.0). DESeq provide statistical routines for determining differential expression in digital gene expression data using a model based on the negative binomial distribution. The resulting P-values were adjusted using the Benjamini and Hochberg's approach for controlling the false discovery rate. Genes with an adjusted P-value<0.05 found by DESeq were assigned as differentially expressed.

[3] = system: XBP1 mRNA splicing / RIDD; test: XBP1 splicing and Blos1 mRNA in LPS-treated splenocytes; assay type: cell-based, mouse; details: LPS treatment

T1 sequence (A0A4Y1YQ52 21-977): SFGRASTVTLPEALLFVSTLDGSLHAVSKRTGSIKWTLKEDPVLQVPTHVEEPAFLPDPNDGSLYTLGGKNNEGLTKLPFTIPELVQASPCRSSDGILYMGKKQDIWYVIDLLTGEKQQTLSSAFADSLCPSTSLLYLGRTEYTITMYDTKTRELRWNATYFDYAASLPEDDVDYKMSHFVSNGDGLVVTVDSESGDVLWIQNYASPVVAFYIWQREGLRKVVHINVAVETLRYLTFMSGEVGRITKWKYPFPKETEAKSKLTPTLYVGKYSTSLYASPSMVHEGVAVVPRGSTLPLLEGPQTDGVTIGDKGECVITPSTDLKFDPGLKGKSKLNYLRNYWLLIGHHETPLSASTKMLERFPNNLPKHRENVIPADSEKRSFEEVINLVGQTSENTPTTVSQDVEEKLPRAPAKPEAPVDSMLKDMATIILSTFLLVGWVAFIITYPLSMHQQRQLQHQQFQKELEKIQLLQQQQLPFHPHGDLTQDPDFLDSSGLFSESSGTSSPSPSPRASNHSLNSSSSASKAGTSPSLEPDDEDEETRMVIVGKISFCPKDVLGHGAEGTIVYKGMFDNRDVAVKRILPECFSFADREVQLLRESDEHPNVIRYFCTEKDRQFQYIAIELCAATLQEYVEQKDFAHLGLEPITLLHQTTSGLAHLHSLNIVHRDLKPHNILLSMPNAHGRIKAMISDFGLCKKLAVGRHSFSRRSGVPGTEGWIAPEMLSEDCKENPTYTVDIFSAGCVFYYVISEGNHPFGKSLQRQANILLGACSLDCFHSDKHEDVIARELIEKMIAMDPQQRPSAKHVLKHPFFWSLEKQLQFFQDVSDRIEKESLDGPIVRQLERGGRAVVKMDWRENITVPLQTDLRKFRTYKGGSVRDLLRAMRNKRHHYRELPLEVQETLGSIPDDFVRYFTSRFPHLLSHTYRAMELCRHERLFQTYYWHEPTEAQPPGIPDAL

SMILES | IRE1α autophosphorylation (IRE1α) | RIDD (Blos1 mRNA) [1] | TXNIP upregulation [2] | downregulation of RIDD genes [2] | global decrease of secretome transcripts [2] | upregulation of apoptosis genes [2] | XBP1 splicing (read coverage) ([2]; 4 hours) | XBP1 splicing (read coverage) ([2]; 24 hours) | Blos1 mRNA decay [3] | XBP1 mRNA splicing [3]
O=S(=O)(CC(F)(F)F)Nc1ccc(Oc2ncccc2-c2ccnc(N[C@H]3CCCNC3)n2)c2ccccc12 (stereo in doubt) [PAIR1, 2,2,2-trifluoro-N-(4-(3-(2-(piperidin-3-ylamino)pyrimidin-4-yl)pyridin-2-yloxy)naphthalen-1-yl)ethanesulfonamide] | equipotently block ER stress-mediated IRE1α autophosphorylation | equivalently blunt RIDD | blocked | antagonized | blocked | largely blunted | preserved | preserved | significantly rescued | reversed with KIRA9, but not with PAIR1
O=S(=O)(CCC(F)(F)F)Nc1ccc(Oc2ncccc2-c2ccnc(NC3CCCNC3)n2)c2ccccc12 (centres unmarked) [KIRA9, 3,3,3-trifluoro-N-(4-(3-(2-(piperidin-3-ylamino)pyrimidin-4-yl)pyridin-2-yloxy)naphthalen-1-yl)propane-1-sulfonamide] | equipotently block ER stress-mediated IRE1α autophosphorylation | equivalently blunt RIDD | blocked | antagonized | blocked | largely blunted | blocked | partially decreased | significantly rescued | reversed
